Experiments:
[1] = system: mouse acute liver injury model; experiment: Mouse acute liver injury model (CCl4); format: in vivo, C57BL/6 mice; conditions: for Acta2 mRNA expression / Col1a1 mRNA expression / Tgfb1 mRNA expression: liver; for ALT / AST: serum, 3 days
Procedure: The mice were randomly divided into 8 groups, one of which was randomly selected as the normal group, and the other 7 groups were the model group, the parent drug 1 (0.4 and 4 μmol/kg), the hydrochloride 22 (4 μmol/kg), and the fumarate 23 (0.4 and 4 μmol/kg) groups, respectively, with 6 mice in each group. In addition to the normal group injected with 10 mL olive oil/kg, the other mice were injected intraperitoneally with 0.5 mL CCl4+9.5 mL olive oil/kg weight, i.e., the ratio of CCl4 to olive oil was 1:19. […] The mice in the normal group and model group were administered intragastrically the same volume of the solvent 0.5% CMC-Na.
1 h after the last administration, blood was collected from the venous plexus of fundus oculi, stood at room temperature for 2 h, and centrifuged at 3000 rpm for 20 min. The serum was aspirated, aliquoted, and frozen at −70° C. for subsequent use. After blood collection, the mice were sacrificed by cervical dislocation, and the abdominal cavity was opened. The livers were taken out, and rinsed twice with pre-cooled PBS. The liver left lobe tissues of the mice were cut, and fixed with 4% paraformaldehyde for 24-48 h. The remaining tissues were frozen at −70° C. for subsequent use.
μL of each sample was taken for experiments. The levels of AST and ALT in the serum of mice were detected according to the operation manual. The absorbance value was detected at the wavelength of 510 nm by a microplate reader, and the sample concentration (U/L) was calculated according to the standard curve.
The extraction method of total RNA from tissues, cDNA synthesis and the PCR amplification method are the same as those in Example 4.

NLRP3 inflammasome = target: T1, NLRP3 inflammasome (Mus musculus, UniProt Q8R4B8); experiment: Inhibition of LPS and ATP induced NLRP3 inflammasome activation in BMDMs (IL-1β level); format: cell-based, C57BL/6 mice; conditions: read-out: IC50, inhibitory effect on activation of NLRP3 inflammasome
T1 construct: endogenous in cells; host or cells: primary bone marrow-derived macrophages (BMDMs) from female C57BL/6 mice, differentiated with rmM-CSF
Description: NLRP3 is an important pattern recognition receptor, that can form the NLRP3 inflammasome through the adaptor ASC and pro-caspase-1. After activation, the NLRP3 inflammasome can mediate the activation of caspase-1, thus promoting the maturation and secretion of IL-1β. In order to determine whether the prepared guaianolide sesquiterpene lactone Compounds 1-8 can inhibit the activation of the NLRP3 inflammasome, we used LPS and ATP to induce the activation of the NLRP3 inflammasome, and observed the effects of Compounds 1-8 on the IL-1β level caused by NLRP3 inflammasome activation.
C57BL/6 mice were sacrificed by cervical dislocation, and then soaked in 75% alcohol for 5-10 min. Subsequently, two hind legs of the mice were cut off with scissors. Next, the meat was removed, and the leg bones were left, which were then washed with PBS for three times. After severing the bone at both ends, a sterile syringe filled with cold serum-free RPMI 1640 medium was used to flush the bone marrow into a 15 mL centrifuge tube. Subsequently, the bone marrow was centrifuged at 1500 rpm for 5 min, and the supernatant was discarded. The residue was resuspended with 1 mL of erythrocyte lysate, blown repeatedly, and then stood for 7 min to lyse erythrocytes. After centrifugation at 1500 rpm for 5 min, the supernatant was discarded. The residue was resuspended with the RPMI 1640 medium containing 100 ng/ml of rmM-CSF, and then transferred to a 6-well culture plate for culture.
The BMDMs were seeded on 6-well cell culture plates and then treated with 100 ng/ml ultrapure LPS for 3 h. […] Subsequently, the cells were stimulated with 5 mM ATP for 45 min. The supernatants were collected into 1.5 mL EP tubes for subsequent detection of IL-1β level.

[2] = system: chronic kidney injury models by the unilateral ureteral obstruction method; experiment: Mouse chronic kidney injury model (unilateral ureteral obstruction); format: in vivo, C57BL/6 mice; conditions: for BUN (urea level in serum) / Scr (creatinine level in serum): 14 days; for BUN (urea level in serum): in mmol/L (unit assumed); for Scr (creatinine level in serum): in µmol/L (unit assumed); for Col1a1 mRNA expression / Havcr1 mRNA expression / Il1 mRNA expression / Il6 mRNA expression / Ngal mRNA expression / Tgfb1 mRNA expression / Tnf mRNA expression / α-Sma mRNA expression: kidney
Description: Chronic kidney injury: The mice were randomly divided into 7 groups, one of which was randomly selected as the normal group, and the other 6 groups were the model group, the parent drug 1 (0.4 and 4 μmol/kg), the hydrochloride 22 (4 μmol/kg), and the fumarate 23 (0.4 and 4 μmol/kg) groups, respectively, with 6 mice in each group. In addition to mice in the normal group that had sham operations (i.e., there was no other operations, but only the left ureter was exposed), the other mice were established chronic kidney injury models by the unilateral ureteral obstruction method. Specifically, the abdominal skin was sterilized with iodophor and alcohol in sequence, and the abdominal skin was cut and separated layer by layer. After fully exposing and separating the left ureter, double obstruction was performed at the proximal bladder end of the ureter with a digestible suture line, followed by suture. On the first day of model establishment, the parent drug 1 (0.4 and 4 μmol/kg), the hydrochloride 22 (4 μmol/kg) and the fumarate 23 (0.4 and 4 μmol/kg) were administered intragastrically for 14 consecutive days. The mice in the normal group and model group were administered intragastrically the same volume of the solvent 0.5% CMC-Na.
1 h after the last administration, blood was collected from the venous plexus of fundus oculi, stood at room temperature for 2 h, and centrifuged at 3000 rpm for 20 min. The serum was aspirated, aliquoted, and frozen at −70° C. for subsequent use. After blood collection, the mice were sacrificed by cervical dislocation, and the abdominal cavity was opened. The kidneys were taken out, rinsed twice with pre-cooled PBS after the perirenal fats and capsules were peeled off, and then fixed with 4% paraformaldehyde for 24-48 h, embedded in paraffin and stained with HE. The remaining tissues were frozen at −70° C. for subsequent use.
μL serum was taken from each sample for the detection of creatinine and urea levels. Samples were added in accordance with the instructions of the kit strictly. After incubation at 37° C., the absorbance value was measured in a microplate reader, and the content levels of detection indicators in each group were calculated according to the standard curve.
The extraction of total RNA from animal tissues, cDNA synthesis and PCR amplification are as in above examples.

T1 sequence (Q8R4B8 whole entry): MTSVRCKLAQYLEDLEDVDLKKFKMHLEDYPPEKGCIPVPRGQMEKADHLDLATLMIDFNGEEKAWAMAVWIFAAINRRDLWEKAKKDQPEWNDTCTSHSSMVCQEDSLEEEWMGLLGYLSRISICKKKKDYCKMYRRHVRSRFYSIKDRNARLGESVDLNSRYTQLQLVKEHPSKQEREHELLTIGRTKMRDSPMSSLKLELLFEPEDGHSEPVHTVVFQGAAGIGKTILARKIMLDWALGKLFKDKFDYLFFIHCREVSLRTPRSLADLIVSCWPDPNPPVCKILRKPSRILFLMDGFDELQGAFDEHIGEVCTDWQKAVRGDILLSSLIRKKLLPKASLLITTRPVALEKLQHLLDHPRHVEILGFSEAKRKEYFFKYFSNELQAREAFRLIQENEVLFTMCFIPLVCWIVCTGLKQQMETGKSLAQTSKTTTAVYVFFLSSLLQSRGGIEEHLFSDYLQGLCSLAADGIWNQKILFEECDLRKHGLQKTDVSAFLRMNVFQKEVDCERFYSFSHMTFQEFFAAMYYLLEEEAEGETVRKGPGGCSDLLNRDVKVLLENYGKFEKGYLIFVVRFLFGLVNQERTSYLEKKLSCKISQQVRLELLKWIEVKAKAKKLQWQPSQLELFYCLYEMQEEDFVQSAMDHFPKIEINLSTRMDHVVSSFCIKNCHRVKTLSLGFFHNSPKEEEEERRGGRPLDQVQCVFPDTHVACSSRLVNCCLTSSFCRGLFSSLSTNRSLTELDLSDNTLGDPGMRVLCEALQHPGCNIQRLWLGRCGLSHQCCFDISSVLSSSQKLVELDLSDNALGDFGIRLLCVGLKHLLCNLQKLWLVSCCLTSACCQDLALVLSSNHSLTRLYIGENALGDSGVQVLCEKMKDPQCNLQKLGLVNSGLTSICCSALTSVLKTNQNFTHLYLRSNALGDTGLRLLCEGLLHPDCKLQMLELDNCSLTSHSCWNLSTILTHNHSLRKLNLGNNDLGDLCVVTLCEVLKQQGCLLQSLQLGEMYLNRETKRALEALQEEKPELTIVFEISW

Compound | Acta2 mRNA expression ([1]; 0.4 μmol/kg) | Col1a1 mRNA expression ([1]; 0.4 μmol/kg) | Tgfb1 mRNA expression ([1]; 0.4 μmol/kg) | Acta2 mRNA expression ([1]; 4 μmol/kg) | Col1a1 mRNA expression ([1]; 4 μmol/kg) | Tgfb1 mRNA expression ([1]; 4 μmol/kg) | ALT ([1]; 0.4 μmol/kg i.g.) | ALT ([1]; 4 μmol/kg i.g.) | AST ([1]; 4 μmol/kg i.g.) | IC50 (NLRP3 inflammasome) | BUN (urea level in serum) ([2]; 4 μmol/kg i.g.) | Scr (creatinine level in serum) ([2]; 4 μmol/kg i.g.) | Col1a1 mRNA expression ([2]; 4 μmol/kg) | Havcr1 mRNA expression ([2]; 4 μmol/kg) | Il1 mRNA expression ([2]; 4 μmol/kg) | Il6 mRNA expression ([2]; 4 μmol/kg) | Ngal mRNA expression ([2]; 4 μmol/kg) | Tgfb1 mRNA expression ([2]; 4 μmol/kg) | Tnf mRNA expression ([2]; 4 μmol/kg) | α-Sma mRNA expression ([2]; 4 μmol/kg) | also measured
C=C1C(=O)O[C@@H]2[C@@H]3[C@]4(CC[C@@]3(C)O)C[C@]4(C)CC[C@@H]12 [Compound 1] | 3.78 | 2.33 | 1.43 | 2.41 | 1.42 | 1.12 | 174.83 U/L | 105.14 U/L | 239.08 U/L | < 40 nM | 11.01 | 104.65 | 9.45 | 8.54 | 3.99 | 6.50 | 21.66 | 1.55 | 6.59 | 1.54 | AST ([1]; 0.4 μmol/kg i.g.): 425.20 U/L; BUN (urea level in serum) ([2]; 0.4 μmol/kg i.g.): 18.41; Scr (creatinine level in serum) ([2]; 0.4 μmol/kg i.g.): 176.35; Col1a1 mRNA expression ([2]; 0.4 μmol/kg): 16.09; Havcr1 mRNA expression ([2]; 0.4 μmol/kg): 12.56; Il1 mRNA expression ([2]; 0.4 μmol/kg): 6.05; Il6 mRNA expression ([2]; 0.4 μmol/kg): 16.52; Ngal mRNA expression ([2]; 0.4 μmol/kg): 37.82; Tgfb1 mRNA expression ([2]; 0.4 μmol/kg): 2.04; Tnf mRNA expression ([2]; 0.4 μmol/kg): 6.41; α-Sma mRNA expression ([2]; 0.4 μmol/kg): 2.32
CN(C)C[C@@H]1C(=O)O[C@H]2[C@H]1CC[C@@]1(C)C[C@]13CC[C@@](C)(O)[C@H]23 [Compound 22] | – | – | – | 1.85 | 1.16 | 0.92 | – | 85.02 U/L | 153.34 U/L | 40 to 80 nM | 9.39 | 64.50 | 7.30 | 6.29 | 2.77 | 3.69 | 16.14 | 1.44 | 5.09 | 1.26 | –
CN(C)C[C@@H]1C(=O)O[C@H]2[C@H]1CC[C@@]1(C)C[C@]13CC[C@@](C)(O)[C@H]23 [Compound 23] | 2.97 | 1.83 | 1.08 | 2.15 | 1.33 | 0.97 | 134.21 U/L | 99.46 U/L | 216.14 U/L | 40 to 80 nM | 9.45 | 79.87 | 8.27 | 7.25 | 3.55 | 5.61 | 19.42 | 1.53 | 7.53 | 1.39 | AST ([1]; 0.4 μmol/kg i.g.): 387.71 U/L; BUN (urea level in serum) ([2]; 0.4 μmol/kg i.g.): 17.63; Scr (creatinine level in serum) ([2]; 0.4 μmol/kg i.g.): 157.79; Col1a1 mRNA expression ([2]; 0.4 μmol/kg): 11.79; Havcr1 mRNA expression ([2]; 0.4 μmol/kg): 11.90; Il1 mRNA expression ([2]; 0.4 μmol/kg): 5.32; Il6 mRNA expression ([2]; 0.4 μmol/kg): 14.31; Ngal mRNA expression ([2]; 0.4 μmol/kg): 35.77; Tgfb1 mRNA expression ([2]; 0.4 μmol/kg): 1.76; Tnf mRNA expression ([2]; 0.4 μmol/kg): 7.10; α-Sma mRNA expression ([2]; 0.4 μmol/kg): 2.02
C=C1C(=O)O[C@@H]2[C@H]3C(C)=CC[C@@]34O[C@@]4(C)CC[C@@H]12 [arglabin, reference compound] | – | – | – | – | – | – | – | – | – | < 40 nM | – | – | – | – | – | – | – | – | – | – | –
